This data set can be described thus: Osmolarity of the contrast agent composition. In kind it is physicochemical. The note with it: comparator, hyperosmolar. An excerpt: For comparison, Dotarem® (gadoteric acid, GUERBET, FRANCE) is hyperosmolar at 1574 mosm, which can cause side effects in humans related to the hypertonicity of a hyperosmolar product creating an intense call of water from the interstitial and cellular spaces to the plasma, responsible for pain or heat. A pain threshold of 600 mOsm/kg has been set.

The text below walks through data of patent US20260232805A1, “METHODS FOR IMAGING USING SPCCT” (NH THERAGUIX, priority 2022, published 2026).

`O=C([O-])CN1CCN(CC(=O)[O-])CCN(CC(=O)O)CCN(CC(=O)[O-])CC1.[Gd+3]` [Dotarem®, gadoteric acid] had an Osmolarity of 1574 mosm.
